Data from US9549911B2, “Ginger metabolites and uses thereof” (North Carolina A&T State University, priority 2012, dated 2017).
Where two headings read alike, the source gives them in different places.

How the values were obtained:
[1] = tested on: human lung fibroblast cells IMR-90; assay: in vitro; format: cell-based
Protocol: Growth inhibition of human cancer and normal cells. Cell growth inhibition was determined by a MTT colorimetric assay. Human colon cancer cells HCT-116, human lung cancer cells H-1299, human colon fibroblast cells CCD-18Co, and human lung fibroblast cells IMR-90 were plated in 96-well microtiter plates with 3000 cells/well and allowed to attach for 24 h at 37° C. […] After the cells were cultured for 48 h, the medium was aspirated and cells were treated with 200 μL fresh medium containing 2.41 mmol/L MTT. […] The reading reflected the number of viable cells and was expressed as a percentage of viable cells in the control. Both HCT-116 and H-1299 cells were cultured in McCoy's 5A medium. CCD-18Co and IMR-90 cells were cultured in Eagle's modified essential medium (EMEM). All of the above media were supplemented with 10% fetal bovine serum, 1% penicillin/streptomycin, and 1% glutamine, and the cells were kept in a 37° C. incubator with 95% humidity and 5% CO2.

[2] = tested on: HCT-116 cells; assay: TUNEL apoptosis assay (Part 2); format: cell-based, human; conditions: HCT-116, 20 or 40 μM
Protocol: HCT-116 and H1299 cells were seeded in 6-well plates at 1×10^5 cells/well and incubated at 37° C. in 5% CO2 incubator. After 24 hours, fresh media supplemented with DMSO (control), [6]-shogaol, M2, M6, or M13 metabolites (20 μM or 40 μM) were added to the wells. After 6 or 24 hours incubation at 37° C. in 5% CO2 incubator, cells were washed and pre-treated for 15 min at room temperature with a solution of 20 μg/ml proteinase K. Cells were then washed twice with phosphate buffer saline pH 7.4 (PBS) and fixed for 10 min at room temperature using 10% neutral formaldehyde solution. After 2 washes in ddH2O, cells were resuspended in 100 μL ddH2O and applied on silanized microscope slides. Slides were incubated overnight at 37° C., and washed twice with PBS. TUNEL assay was then carried out according to the manufacturer's protocol. Cells were observed under 400× power using a Zeiss microscope A1 (Thornwood, N.Y.). 10 fields per slide were evaluated, and TUNEL+ cells (with brown coloration in the nucleus) were expressed as a percentage of the total number of cells contained in a field.

[3] = tested on: human colon cancer cells HCT-116; assay: MTT growth inhibition by M14 and M15 (Part 3); format: cell-based; conditions: HCT-116, 24 hours, 0 to 80 μM; read-out: IC50 (cell viability, MTT)
Protocol: Cell growth inhibition was determined by a MTT colorimetric assay. […] The reading reflected the number of viable cells and was expressed as a percentage of viable cells in the control. Both HCT-116 and H-1299 cells were cultured in McCoy's 5A medium. All of the above media were supplemented with 10% fetal bovine serum, 1% penicillin/streptomycin, and 1% glutamine, and the cells were kept in a 37° C. incubator with 95% humidity and 5% CO2.

[4] = tested on: A549 cancer cells; assay: MTT cell viability (Part 4); format: cell-based, human; conditions: A549, 24 hours, read-out: IC50 (toxicity, MTT)
[5] = tested on: IMR90 normal human lung cells; assay: MTT cell viability (Part 4); format: cell-based; conditions: read-out: IC50 (toxicity, MTT)
[6] = tested on: A549 cells; assay: Cell Death Detection ELISA apoptosis (Part 4); format: cell-based, human; conditions: A549, 20 μM, 24 hours; for enrichment factor (small nucleosomes, ELISA): with pft
Protocol: The Cell Death Detection ELISA (Enzyme-linked immunoabsorbant assay) Plus kit from Roche (Mannheim, Germany) was used. […] After 24 hours, the microplate was centrifuged for 10 minutes at 1200 rpm, and the supernatant was removed. 200 μl of the lysis buffer was added in each well and incubated for 30 minutes at room temperature. The plate was then centrifuged for 10 minutes at 1200 rpm and 20 μl of the supernatant was transferred to streptavidin-coated micro-wells. ELISA assay was performed according to manufacturer's instruction. Absorbance in each well was measured at 405 nm in absorbance units (AU), and the enrichment factor (EF) in small nucleosomes was calculated with the formula EF=AU treated/AU DMSO.

[7] = tested on: A549 cells; assay: Intracellular glutathione (GSH, GSH/GSSG) measurement; format: cell-based, human; conditions: A549, 10 μM
Protocol: The total GSH content was measured using a HT Glutathione Assay kit (Trevigen, Galthersburg, Md.). Briefly A549 cells were plated in 60×15 mm culture plates and were allowed to attach overnight at 37° C. Cells were treated with 10 μM M2 and incubated for 0, 2, 4, 8, or 24 hours. Cells were harvested and proteins were precipitated with 5% (w/v) metaphosphoric acid. Samples were then processed following the manufacturer's instructions. The measurement of the absorbance of 5-thio-2-nitrobenzoic acid (TNB) at 405 nm was used to quantify glutathione levels in each sample, which was then compared to the standard curve and corrected for protein concentration.
For measurement of oxidized glutathione (Glutathione Disulfide or GSSG), samples and GSSG standards were treated with 2M 4-vinylpyridine (1 μL/50 μL sample) at room temperature for one hour. 4-Vinylpyridine (Sigma Aldrich, St. Louis, Mo.) blocks free thiols present in the reaction, consequentially blocking the formation of new GSSG by GSH. The 2M solution was freshly prepared by diluting 4-vinylpyridine in ethanol in a ratio of approximately 1:3.6. After incubation, samples were processed using the Trevigen kit's protocol and absorbance was measured at 405 nm as described herein.
The quantity of reduced cellular glutathione (or GSH) is obtained by subtracting the oxidized samples values from the total glutathione values or: GSH(reduced)=GSH(total)−GSSG(oxidized). Ratios of reduced to oxidized glutathione are shown to further represent cellular redox status after treatment with 6S or M2.

[8] = tested on: A549 cells; assay: Western blotting of apoptosis and p53 pathway markers; format: cell-based, human; conditions: A549, 20 or 40 μM; for p53 levels (Western blot): 2 and 24 hours; for pro-apoptotic markers cytochrome C, cleaved caspase 3 and 9 (Western blot): 2 hours
Protocol: Cell extracts were prepared by incubating cells for 5 minutes on ice with RIPA (Radio-Immunoprecipitation Assay) buffer (Thermo Fisher Scientific, Rockford, Ill.) supplemented with a protease and phosphatase inhibitor mix. Cell lysate was then centrifuged at 13,000 rpm at 4° C. for 20 minutes, and supernatant was harvested for Western blot analysis. Briefly, 30-60 μg of protein extract were separated on a 10-16% polyacrylamide gel and transferred on PVDF (polyvinylidene difluoride) membrane (Biorad, Hercules, Calif.). Membrane was blocked using a 1% casein solution in TBS-Tween 20. Primary rabbit antibodies were diluted in blocking solution and incubated with the membrane overnight at 4° C. After washing the membrane with 3 changes of TBS-T, secondary Horse Radish Peroxydase (HRP)-conjugated anti-rabbit antibody was diluted 1:3000 in blocking solution and incubated with PVDF membrane for 1 hour at room temperature. […] Films were developed using a SRX-101A Konica Minolta developer (Tokyo, Japan). The experiment was repeated independently twice to confirm the results. Fold-induction of proteins calculated by normalizing the band of interest to the loading control (β-actin), and this adjusted intensity what compared to the control (DMSO) sample.

Structure (SMILES) | IC50 [1] [µM] | induction of apoptosis (TUNEL) versus DMSO ([2]; 6 hours) | IC50 [3] [µM] | IC50 ([4]; listed as 6S) [µM] | IC50 ([5]; listed as 6S) [µM] | enrichment factor (small nucleosomes, ELISA) [6] | enrichment factor (cytoplasmic histone-associated DNA fragments, ELISA) ([6]; without pft) | GSH/GSSG ratio ([7]; 2 hours) | intracellular GSH levels ([7]; 2 hours) | GSH/GSSG ratio ([7]; 4 hours) | intracellular GSH levels ([7]; 8 hours) | GSH/GSSG ratio ([7]; 24 hours) | intracellular GSH levels compared to baseline ([7]; 24 hours) | p53 levels (Western blot) [8] | pro-apoptotic markers cytochrome C, cleaved caspase 3 and 9 (Western blot) [8] | induction of apoptosis (TUNEL) versus DMSO ([2]; 24 hours) | IC50 [4] [µM] | IC50 [5] [µM]
CCCCC/C=C/C(=O)CCc1ccc(O)c(OC)c1 [[6]-shogaol, reference compound] | 36.6 | higher levels of apoptosis | 19.9 | 25.2 | 36.6 | about 1 | 2.2 | significantly lower | significantly depleted | significantly lower | significantly lower | significantly higher | significantly increased | increase in p53 levels | elevated after 2 hours | – | – | –
CCCCCC(CC(=O)CCc1ccc(O)c(OC)c1)SC[C@H](N)C(=O)O (stereo partly shown) [M2, 5-cysteinyl-[6]-shogaol] | 98.3 | higher levels of apoptosis | – | – | – | 2 | – | – | significantly depleted | significantly lower | significantly higher | significantly higher | significantly increased | increase in p53 levels | elevated after 2 hours | Apoptosis was observed | 30.4 | 98.3
